Laboratory results reported in publication PMC9298194, “Clinical Pharmacokinetics of Daprodustat: Results of an Absorption, Distribution, and Excretion Study With Intravenous Microtracer and Concomitant Oral Doses for Bioavailability Determination” (Clinical Pharmacology in Drug Development, 2021).
“And” between values parts separate entries of the source, which are not always exact repeats. Identical values can stand only once. Like-named read-outs stand apart in the source and are kept apart here.

Legend:
[1] = Metabolite load, hepatic extraction, fraction escaping gut metabolism and fraction absorbed analyses; type: in vivo, human
Method: To assess the extent of metabolism and absorption of daprodustat, the plasma PK parameters: metabolite load, fraction escaping metabolism by the gut wall (Fg), hepatic extraction (Eh), and fraction absorbed (Fabs) were calculated on the basis of equations found in Harrell et al.[18] All parameters for analysis have been conducted on plasma results (assuming a blood to plasma ratio of 1) but when appropriate, the actual human blood:plasma ratio of 1.23 (internal GSK reports) of daprodustat has been applied to specific parameters to aid interpretation. (1) HepaticExtraction:Eh(blood)=CLbtotal−CLbrenal/QH (2) Fractionescapinglivermetabolism:Fh=1−Eh(blood) (3) MetaboliteLoadTRA=totalradioactivity:MLroute=AUCTRAroute−AUCroute/AUCTRAroute (4) Fractionescapinggut:Fg=1−MLoral−MLIV/Fh (5) Fractionabsorbed:Fabs=Foral/Fh×Fg

[2] = ref GSK data on file; cited from earlier work
[3] = Plasma daprodustat pharmacokinetics in healthy male participants (6 mg oral tablet, 50 μg IV microtracer, 25 mg oral solution); type: in vivo, human; settings: for AUC / tmax / Cmax / half-life: plasma daprodustat; for tmax: median (range); for Cmax: arithmetic mean (SD); for half-life: read-out: t½ (converted)
Method: On day 1 of treatment period 1, after an overnight fast of at least 8 hours, each participant took a single 6 mg oral dose of daprodustat; participants continued to fast for < 3 hours when a small amount of food was administered to stimulate bile release for the Entero‐Test. After ≈1 hour, participants received 50 μg of [^14C]‐GSK1278863 (≈4.63 kBq; 125 nCi) by IV infusion over 1 hour. Blood samples were collected for 144 hours after oral dosing (until day 7). Participants were discharged on study day 7 after completion of the 144‐hour sample collection. The Entero‐Test was swallowed 3.5 hours before the oral dose of daprodustat (while in the fasted state) and removed 3 hours after the oral dose (about 1 hour after completion of the IV infusion). About 1.5 hours before string withdrawal, a food cue was used to stimulate gallbladder emptying.
On day 1 of treatment period 2, after an overnight fast of at least 8 hours, each participant received 25 mg [^14C]‐GSK1278863 (≈2.31 MBq; 62.5 μCi) as an oral solution; participants continued to fast for 4 hours after dosing.[15] Blood, urine, and fecal samples were collected for a minimum of 144 hours (up to day 7) after dosing, depending on the amount of radioactivity excreted by each participant in excreta collected daily. Liquid scintillation counting (LSC) was performed on these excreta collections on an ongoing basis to assess recovery of the radioactivity dosed. Participants were discharged if ≥90% and <1% of the dose was excreted on both days 6 and 7.
As per standard practice for administration of radiolabeled drug, the IV and oral dosing solutions were analyzed for daprodustat via assessment of the radioactivity and through application of the predetermined specific activity. Whole blood samples were collected for measurement of each of the following: blood total radioactivity in period 2 and plasma total radioactivity in period 1, plasma concentrations of daprodustat, and the 6 predominant circulating metabolites in periods 1 and 2. Blood samples were collected at 1, 3, and 6 hours after dosing for blood assessments. Blood samples were collected for plasma assessments before dosing and at 0.50, 1, 1.25, 1.5, 2, 3, 4, 6, 8, 10, 12, 24, 36, 48, 72, 96, 120, and 144 hours after dosing.
Daprodustat and [^14C]‐GSK1278863 plasma concentrations were measured in treatment period 1: 6 mg daprodustat oral tablet, followed by a 1‐hour IV infusion of 50 μg [^14C]‐GSK1278863, started 1 hour after tablet administration, and in treatment period 2: 25 mg [^14C]‐GSK1278863 oral solution.
Plasma samples from periods 1 and 2 were analyzed for daprodustat and its 6 metabolites by PPD Laboratories using a validated analytical method based on protein precipitation, followed by high‐performance liquid chromatography with tandem mass spectrometric detection analysis, as described previously.[7], [8] Specifically, the lower limit of quantification (LLQ) for this study was 0.100 ng/mL using a 100 μL aliquot of ethylenediaminetetraacetic acid plasma for all 7 analytes. The higher limit of quantification was 100 ng/mL for all 7 analytes. The data accuracy (% bias range: −2.21 to −0.400 to 0.560‐5.85) and precision (% coefficient of variation of 3.99‐7.13) met acceptable limits as recommended by the US Food and Drug Administration in their bioanalytical method validation guidelines.[17] Final PK concentration data for period 1 after 1‐hour samples for daprodustat were further corrected to account for radiolabeled ^14C dose.
Plasma samples collected from period 1 were analyzed for [^14C]‐GSK1278863 by GSK using a validated analytical method, based on protein precipitation, followed by liquid chromatography–AMS analysis. The LLQ was 1.80 pg/mL, using a 600 μL aliquot of human plasma with a higher limit of quantification of 358.92 pg/mL. Accuracy for the 5 validation levels were between −9.2% and 2.2%, and precision was between 2.5% and 10.8%. […]

[4] = healthy volunteers; cited from earlier work
[5] = 6 mg tablet vs 50 μg IV dose (120-fold dose difference), period 1
[6] = 25 mg oral solution vs 6 mg oral tablet (4.17-fold dose difference)

For `O=C(O)CNC(=O)C1C(=O)N(C2CCCCC2)C(=O)N(C2CCCCC2)C1=O` [Daprodustat], which “Eh (hepatic extraction)” value ([1]; [14C] IV infusion, fraction, adjusted with blood:plasma ratio of 1.23, mean (SD), n = 3) is on record?
Its value is 0.181 (0.050).

And the “MLIV (plasma metabolite load)” value ([1]; [14C] IV infusion, mean (SD), n = 3)?
The value was 0.623 (0.080).

And the “MLIV (plasma metabolite load)” value ([1]; [14C] IV infusion, mean (SD), n = 3, listed as daprodustat)?
Its value is “≈ 0.623 (0.080)”.

What about the “Fabs (fraction absorbed)” value ([1]; [14C] oral solution, fraction, reduced to Foral/Fh, blood:plasma ratio 1.23, mean (SD), n = 3) of the same compound?
Its value is 0.811 (0.134).

And the “Fg (fraction escaping metabolism by the gut wall)” value ([1]; [14C] oral solution, mean (SD), n = 3)?
Its value is greater than 1.

What about the “MLPO (plasma metabolite load)” value ([1]; [14C] oral solution, mean (SD), n = 6) of the same compound?
Its value is ~0.584 (0.060).

What about the “daprodustat absorbed across the gastrointestinal tract (Fabs)” value ([1]; following oral solution administration) of the same compound?
Its value is “≈ 80% and 81% and ≈ 81%”.

What about the hepatic extraction ([1]; from blood CL, human liver blood flow of 87 L/h) of the same compound?
Its hepatic extraction is “≈ 18% and 18%”.

And the protein binding [2]?
Its protein binding is greater than 99%.

What about the “absolute bioavailability (oral F)” value ([3]; 6 mg oral tablet, based on AUC0‐inf) of the same compound?
Its value is 66.1%.

And the “fold difference in mean AUC0‐t, oral tablet vs IV” value [3, 5]?
The value was 75.0 fold.

And the “fold difference in mean Cmax, oral tablet vs IV” value [3, 5]?
The value was 47.2 fold.

What about the “fold increase in total exposure (AUC0‐inf), solution vs tablet” value ([3]; 25 mg oral solution vs 6 mg oral tablet) of the same compound?
Its value is 4.84 fold.

And the “fold increase in mean AUC0‐t, solution vs tablet” value [3, 6]?
The value was 4.84 fold.

And the “fold increase in mean Cmax, solution vs tablet” value [3, 6]?
Its value is 5.86 fold.

What about the “Oral F (0‐inf)” value ([3]; absolute bioavailability, 6 mg oral tablet vs IV microtracer, fraction, mean (SD), n = 3) of the same compound?
Its value is 0.661 (0.077).

What about the clearance ([3]; male, human, blood, 50 μg, translated from plasma CL after IV administration, read-out: blood CL (converted)) of the same compound?
The clearance was roughly 250 mL/min.

And the AUC ([3]; male, human, plasma, iv, 50 μg, [14C] 50 μg IV infusion, mean (SD), n = 3, read-out: AUC0‐inf)?
The AUC was 0.00271 µg·h/mL.

And the AUC ([3]; male, human, plasma, iv, 50 μg, [14C] 50 μg IV infusion, mean (SD), read-out: AUC0‐t)?
The AUC was 0.00268 µg·h/mL.

What about the tmax ([3]; male, human, plasma, iv, 50 μg, [14C] 50 μg IV infusion, read-out: tmax) of the same compound?
Its tmax is 1 h.

What about the bioavailability ([3]; male, human, plasma, po, 6 mg, 6 mg oral tablet, based on AUC0‐inf, read-out: absolute bioavailability (oral F)) of the same compound?
Its bioavailability is roughly 66%.

What about the AUC ([3]; male, human, plasma, po, 6 mg, 6 mg oral tablet, mean (SD), read-out: AUC0‐inf) of the same compound?
Its AUC is 0.202 µg·h/mL.

And the AUC ([3]; male, human, plasma, po, 6 mg, 6 mg oral tablet, mean (SD), read-out: AUC0‐t)?
The AUC was 0.201 µg·h/mL.

And the tmax ([3]; male, human, plasma, po, 6 mg, 6 mg oral tablet, read-out: tmax)?
Its tmax is roughly 2 h.

What about the AUC ([3]; male, human, plasma, po, 25 mg, [14C] 25 mg oral solution, mean (SD), read-out: AUC0‐inf) of the same compound?
The AUC was 0.974 µg·h/mL.

What about the AUC ([3]; male, human, plasma, po, 25 mg, [14C] 25 mg oral solution, mean (SD), read-out: AUC0‐t) of the same compound?
Its AUC is 0.972 µg·h/mL.

And the tmax ([3]; male, human, plasma, po, 25 mg, [14C] 25 mg oral solution, read-out: tmax)?
Its tmax is roughly 0.5 h.

What about the Vd ([3]; male, human, plasma, [14C] 50 μg IV infusion, mean (SD), n = 3, read-out: Vss) of the same compound?
The Vd was 14.6 L.

What about the clearance ([3]; male, human, plasma clearance, [14C] 50 μg IV infusion, mean (SD), n = 3, read-out: CL (converted)) of the same compound?
The clearance was 322 mL/min.

And the Cmax ([3]; male, human, 6 mg oral tablet)?
Its Cmax is 0.0973 µg/mL.

What about the half-life ([3]; male, human, 6 mg oral tablet, mean (SD)) of the same compound?
Its half-life is 1.92 h.

And the Cmax ([3]; male, human, [14C] 50 μg IV infusion over 1 h)?
The Cmax was 0.00206 µg/mL.

What about the half-life ([3]; male, human, [14C] 50 μg IV infusion, mean (SD), n = 3) of the same compound?
The half-life was 2.07 h.

And the Cmax ([3]; male, human, [14C] 25 mg oral solution)?
Its Cmax is 0.57 µg/mL.

What about the half-life ([3]; male, human, [14C] 25 mg oral solution, mean (SD)) of the same compound?
Its half-life is 2.6 h.

And the tmax ([3]; 6 mg oral tablet)?
Its tmax is 2.12 (1.42−4.00) h.

And the tmax ([3]; [14C] 50 μg IV infusion)?
The tmax was 0.983 (0.983−0.983) h.

What about the tmax ([3]; [14C] 25 mg oral solution) of the same compound?
The tmax was 0.500 (0.500−0.517) h.

And the renal clearance [4]?
Its renal clearance is “≈ 0.20 mL/min”.
